Laboratory results published in patent publication US11174232B2, “Substituted heterocyclyl derivatives as CDK inhibitors” (Aurigene Discovery Technologies Limited, priority 2015, dated 2021).

Molecular target: CDK7/CycH/MNAT1 (Homo sapiens (Human), UniProt P50613)
Assay: Biochemical Assay for CDK7 (TR-FRET kinase assay)
Settings: 60 min pre-incubation with kinase, 1 mM ATP; for inhibition at 10 µM: 10 μM compound
Description: Biochemical Assay for CDK7:
The ability of compounds to inhibit CDK7 kinase activity was tested in a TR-FRET assay using 5 nM of CDK7/CycH/MNAT1 obtained from Invitrogen, USA. Test compounds were pre-incubated with the kinase at room temperature for 60 min. After the incubation, substrate mix [100 nM Ultra-light MBP (Perkin Elmer, USA) and 1 mM ATP (Sigma)] was added. The above reaction was stopped by the addition of 40 mM EDTA after 60 minutes of kinase reaction. 1 nM Eu-labelled antiphospho-MBP antibody [Perkin Elmer, USA] was added, mixed well and the fluorescence emission at 615 nm and 665 nm [excitation at 340 nm] was measured. The final DMSO concentration in the assay was 1%. For IC50 determination, appropriate concentrations were made by ⅓^rd serial dilutions of 10 mM DMSO stock solution of test compound. All the fluorescence measurements were made in a Victor 3 Multilabel Counter [Perkin Elmer, USA]. The IC50 was determined by fitting the dose response data to sigmoidal curve fitting equation using GraphPad Prism software V5. To identify compounds that inhibit CDK7 irreversibly, time depended inhibition studies were carried by pre-incubating compound with the enzyme at three time points (20, 60 and 180 min) and carrying out assay as described above.
The compounds were screened by the above mentioned assay procedure.

Chain of CDK7/CycH/MNAT1 (P50613 whole entry): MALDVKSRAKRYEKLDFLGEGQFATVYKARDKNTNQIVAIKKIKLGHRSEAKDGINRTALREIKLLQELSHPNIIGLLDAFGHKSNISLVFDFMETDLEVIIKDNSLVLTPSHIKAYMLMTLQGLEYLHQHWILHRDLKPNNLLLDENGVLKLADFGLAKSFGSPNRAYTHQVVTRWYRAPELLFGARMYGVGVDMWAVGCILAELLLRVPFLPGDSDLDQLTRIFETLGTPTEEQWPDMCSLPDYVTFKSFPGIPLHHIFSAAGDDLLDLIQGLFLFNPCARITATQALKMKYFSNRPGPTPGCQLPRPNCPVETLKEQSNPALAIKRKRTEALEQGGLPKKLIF
Chain of CDK7/CycH/MNAT1 (P51946 whole entry partner): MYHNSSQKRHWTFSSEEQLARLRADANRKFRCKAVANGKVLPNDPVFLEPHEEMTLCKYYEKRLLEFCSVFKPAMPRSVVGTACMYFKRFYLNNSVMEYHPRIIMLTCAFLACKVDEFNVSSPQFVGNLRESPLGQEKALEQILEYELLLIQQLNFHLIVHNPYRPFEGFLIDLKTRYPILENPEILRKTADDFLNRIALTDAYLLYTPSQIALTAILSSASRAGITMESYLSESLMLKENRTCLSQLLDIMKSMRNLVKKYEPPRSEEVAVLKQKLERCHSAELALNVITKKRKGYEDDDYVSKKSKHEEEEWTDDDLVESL
Chain of CDK7/CycH/MNAT1 (P51948 whole entry partner): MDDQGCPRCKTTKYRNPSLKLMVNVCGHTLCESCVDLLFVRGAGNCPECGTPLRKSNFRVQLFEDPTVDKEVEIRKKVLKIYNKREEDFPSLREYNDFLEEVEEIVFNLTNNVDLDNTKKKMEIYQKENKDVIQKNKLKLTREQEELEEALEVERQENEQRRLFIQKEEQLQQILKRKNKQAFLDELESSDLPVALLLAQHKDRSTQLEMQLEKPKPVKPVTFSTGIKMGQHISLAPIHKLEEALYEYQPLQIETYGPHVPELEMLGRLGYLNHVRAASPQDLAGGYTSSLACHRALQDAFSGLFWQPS

Structure (SMILES) | inhibition at 10 µM | IC50
C=CC(=O)Nc1ccc(-c2cccc(C(C)C(=O)Nc3cc(C4CC4)[nH]n3)c2)cc1 (stereo not drawn) [Compound 18, N-(3′-(1-((5-cyclopropyl-1H-pyrazol-3-yl)amino)-1-oxopropan-2-yl)-[1,1′-biphenyl]-4-yl)acrylamide] | 95% | > 100 nM
C=CC(=O)Nc1ccc(-c2cccc(C(C)C(=O)Nc3cc(C4CC4)[nH]n3)c2)cc1F (stereo not drawn) [Compound 19, N-(3′-(1-((5-cyclopropyl-1H-pyrazol-3-yl)amino)-1-oxopropan-2-yl)-3-fluoro-[1,1′-biphenyl]-4-yl)acrylamide] | 97% | 25 to 100 nM
C=CC(=O)Nc1ccc(-c2cccc(C(C)C(=O)Nc3cc(C4CC4)[nH]n3)c2)cn1 (stereo not drawn) [Compound 20, N-(5-(3-(1-((5-cyclopropyl-1H-pyrazol-3-yl)amino)-1-oxopropan-2-yl)phenyl)pyridin-2-yl)acrylamide] | 100% | < 25 nM
C=CC(=O)Nc1ccc(-c2cc(C(C)C(=O)Nc3cc(C4CC4)[nH]n3)ccc2F)cc1F (stereo not drawn) [Compound 23, N-(5′-(1-((5-cyclopropyl-1H-pyrazol-3-yl)amino)-1-oxopropan-2-yl)-2′,3-difluoro-[1,1′-biphenyl]-4-yl)acrylamide] | 98% | 25 to 100 nM
C=CC(=O)Nc1ccc(-c2cccc(C(C)C(=O)Nc3cc(C4CC4)[nH]n3)c2)nc1 (stereo not drawn) [Compound 24, N-(6-(3-(1-((5-cyclopropyl-1H-pyrazol-3-yl)amino)-1-oxopropan-2-yl)phenyl)pyridin-3-yl)acrylamide] | 96% | 25 to 100 nM
C=CC(=O)Nc1ccc(-c2cccc(C(C(=O)Nc3cc(C4CC4)[nH]n3)C(C)C)c2)cc1F (stereo not drawn) [Compound 25, 2-(4′-acrylamido-3′-fluoro-[1,1′-biphenyl]-3-yl)-N-(5-cyclopropyl-1H-pyrazol-3-yl)-3-methylbutanamide] | 97% | 25 to 100 nM
C=CC(=O)Nc1ccc(-c2cccc(C(CC)C(=O)Nc3cc(C4CC4)[nH]n3)c2)nc1 (stereo not drawn) [Compound 26, 2-(3-(5-acrylamidopyridin-2-yl)phenyl)-N-(5-cyclopropyl-1H-pyrazol-3-yl)butanamide] | 96% | < 25 nM
C=CC(=O)Nc1ccc(-c2cccc(C(CC)C(=O)Nc3cc(C4CC4)[nH]n3)c2)cc1F (stereo not drawn) [Compound 27, 2-(4′-acrylamido-3′-fluoro-[1,1′-biphenyl]-3-yl)-N-(5-cyclopropyl-1H-pyrazol-3-yl)butanamide] | 98% | < 25 nM
CC(C(=O)Nc1cc(C2CCCC2)[nH]n1)c1cccc(-c2ccc(NC(=O)/C=C/CN(C)C)c(F)c2)c1 (stereo not drawn) [Compound 28, (E)-N-(3′-(1-((5-cyclopentyl-1H-pyrazol-3-yl)amino)-1-oxopropan-2-yl)-3-fluoro-[1,1′-biphenyl]-4-yl)-4-(dimethylamino)but-2-enamide] | 96% | 25 to 100 nM
CC(C(=O)Nc1cc(C2CC2)[nH]n1)c1cccc(-c2ccc3c(c2)CCN3C(=O)/C=C/CN(C)C)c1 (stereo not drawn) [Compound 29, (E)-N-(5-cyclopropyl-1H-pyrazol-3-yl)-2-(3-(1-(4-(dimethylamino)but-2-enoyl)indolin-5-yl)phenyl)propanamide] | 97% | < 25 nM
C=CC(=O)Nc1ccc(-c2cccc(C(C)C(=O)Nc3n[nH]c(C4CC4)c3C)c2)cc1 (stereo not drawn) [Compound 30, N-(3′-(1-((5-cyclopropyl-4-methyl-1H-pyrazol-3-yl)amino)-1-oxopropan-2-yl)-[1,1′-biphenyl]-4-yl)acrylamide] | 28% | > 100 nM
CCC(C(=O)Nc1cc(C2CC2)[nH]n1)c1cccc(-c2ccc(NC(=O)/C=C/CN(C)C)c(F)c2)c1 (stereo not drawn) [Compound 31, (E)-N-(3′-(1-((5-cyclopropyl-1H-pyrazol-3-yl)amino)-1-oxobutan-2-yl)-3-fluoro-[1,1′-biphenyl]-4-yl)-4-(dimethylamino)but-2-enamide] | 100% | < 25 nM
CCN(CC)C/C=C/C(=O)Nc1ccc(-c2cccc(C(C)C(=O)Nc3cc(C4CC4)[nH]n3)c2)cc1F (stereo not drawn) [Compound 32, (E)-N-(3′-(1-((5-cyclopropyl-1H-pyrazol-3-yl)amino)-1-oxopropan-2-yl)-3-fluoro-[1,1′-biphenyl]-4-yl)-4-(diethylamino)but-2-enamide] | 100% | < 25 nM
CC(C(=O)Nc1cc(C2CC2)[nH]n1)c1cccc(-c2ccc(NC(=O)/C=C/CN3CCCC3)c(F)c2)c1 (stereo not drawn) [Compound 33, (E)-N-(3′-(1-((5-cyclopropyl-1H-pyrazol-3-yl)amino)-1-oxopropan-2-yl)-3-fluoro-[1,1′-biphenyl]-4-yl)-4-(pyrrolidin-1-yl)but-2-enamide] | 97% | 25 to 100 nM
CC(C(=O)Nc1cc(C2CC2)[nH]n1)c1cccc(-c2ccc(NC(=O)/C=C/CN3CCOCC3)c(F)c2)c1 (stereo not drawn) [Compound 34, (E)-N-(3′-(1-((5-cyclopropyl-1H-pyrazol-3-yl)amino)-1-oxopropan-2-yl)-3-fluoro-[1,1′-biphenyl]-4-yl)-4-morpholinobut-2-enamide] | 88% | > 100 nM
CC(C(=O)Nc1cc(C2CC2)[nH]n1)c1cccc(-c2ccc(NC(=O)/C=C/CN3CCOCC3)cn2)c1 (stereo not drawn) [Compound 35, (E)-N-(6-(3-(1-((5-cyclopropyl-1H-pyrazol-3-yl)amino)-1-oxopropan-2-yl)phenyl)pyridin-3-yl)-4-morpholinobut-2-enamide] | 86% | > 100 nM
CC(C)C(C(=O)Nc1cc(C2CC2)[nH]n1)c1cccc(-c2ccc(NC(=O)/C=C/CN(C)C)cn2)c1 (stereo not drawn) [Compound 36, (E)-N-(6-(3-(1-((5-cyclopropyl-1H-pyrazol-3-yl)amino)-3-methyl-1-oxobutan-2-yl)phenyl)pyridin-3-yl)-4-(dimethylamino)but-2-enamide] | 98% | < 25 nM
CC(C(=O)Nc1cc(C2CC2)[nH]n1)c1cccc(-c2ccc(NC/C=C/C(=O)N(C)C)cn2)c1 (stereo not drawn) [Compound 37, (E)-4-((6-(3-(1-((5-cyclopropyl-1H-pyrazol-3-yl)amino)-1-oxopropan-2-yl)phenyl)pyridin-3-yl)amino)-N,N-dimethylbut-2-enamide] | 67% | > 100 nM
CC(C(=O)Nc1cc(C2CC2)[nH]n1)c1cccc(-c2ccc(NC(=O)/C=C/CN(C)C)c(F)n2)c1 (stereo not drawn) [Compound 38, (E)-N-(6-(3-(1-((5-cyclopropyl-1H-pyrazol-3-yl)amino)-1-oxopropan-2-yl)phenyl)-2-fluoropyridin-3-yl)-4-(dimethylamino)but-2-enamide] | 94% | > 100 nM
CC(C(=O)Nc1cc(C2CC2)[nH]n1)c1cccc(-c2ccc(NC(=O)/C=C/CN3CCCCC3)cn2)c1 (stereo not drawn) [Compound 39, (E)-N-(6-(3-(1-((5-cyclopropyl-1H-pyrazol-3-yl)amino)-1-oxopropan-2-yl)phenyl)pyridin-3-yl)-4-(piperidin-1-yl)but-2-enamide] | 84% | > 100 nM
CC(C(=O)Nc1cc(C2CC2)[nH]n1)c1cccc(-c2ccc(NC(=O)/C=C/CN3CCCCC3)nc2)c1 (stereo not drawn) [Compound 40, (E)-N-(5-(3-(1-((5-cyclopropyl-1H-pyrazol-3-yl)amino)-1-oxopropan-2-yl)phenyl)pyridin-2-yl)-4-(piperidin-1-yl)but-2-enamide] | 100% | < 25 nM
